Results: patent US5138069A (E. I. Du Pont de Nemours and Company, priority 1988, dated 1992)
Read-outs that look alike come from different tables or passages of the source.

Legend:
AII receptor = assay: Angiotensin II receptor binding (displacement of 3H-AII); details: read-out: Angiotensin II Receptor Binding IC50, rat adrenal cortical microsomes, 2 nM 3H-AII, 1 hour, room temperature
Procedure: The assay was carried out according to the method described by [Glossmann et al., J. Biol. Chem., 249, 825 (1974)], but with some modifications. The reaction mixture contained rat adrenal cortical microsomes (source of AII receptor) in Tris buffer and 2 nM of ^3 H-AII with or without potential AII antagonist. This mixture was incubated for 1 hour at room temperature and the reaction was subsequently terminated by rapid filtration and rinsing through glass micro-fibre filter. Receptor-bound ^3 H-AII trapped in filter was quantitated by scintillation counting.
Compounds listed in Table 26 were tested in the same manner as described for Table 25, except that in the test for antihypertensive effects in renal hypertensive rats, the compounds were administered orally at 30 mg/kg and intravenously at 3 mg/kg.

Renal Hypertensive Rats = assay: Antihypertensive effects in renal hypertensive rats; format: in vivo; details: Rattus norvegicus; for minimal effective dose at 10 mg/kg / minimal effective dose at 100 mg/kg: Table 25; for minimal effective dose at 10 mg/kg / minimal effective dose at 3 mg/kg: intravenous; for minimal effective dose at 10 mg/kg: 10 mg/kg or less; for minimal effective dose at 100 mg/kg / minimal effective dose at 30 mg/kg: oral; for minimal effective dose at 100 mg/kg: 100 mg/kg or less; for minimal effective dose at 3 mg/kg / minimal effective dose at 30 mg/kg: Table 26
Procedure, shortened: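 Renal hypertensive rats (renin-driven AII elevation) dosed orally at 100 mg/kg and/or i.v. via jugular cannula at 10 mg/kg; a second set used 30 mg/kg oral and 3 mg/kg i.v. Arterial pressure recorded continuously via carotid cannula and compared with pretreatment levels.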

| Structure (SMILES) | IC50 (AII receptor; Table 25) [nM] | IC50 (AII receptor; Table 26) [nM] | minimal effective dose at 10 mg/kg (Renal Hypertensive Rats) [mg/kg] | minimal effective dose at 100 mg/kg (Renal Hypertensive Rats) [mg/kg] | minimal effective dose at 3 mg/kg (Renal Hypertensive Rats) [mg/kg] | minimal effective dose at 30 mg/kg (Renal Hypertensive Rats) [mg/kg] |
| --- | --- | --- | --- | --- | --- | --- |
| CCCCc1nc(Cl)c(CO)n1Cc1ccc(-c2cccc(C)c2C(=O)O)cc1 [Example 106] | 1900 | – | < 10 | < 100 | – | – |
| CCCCSc1ncc(CO)n1Cc1ccc(-c2ccccc2C(=O)O)cc1 [Example 123] | 5600 | – | < 10 | > 100 | – | – |
| CCCc1nc(C(F)(F)F)c(CO)n1Cc1ccc(-c2ccccc2C(=O)O)cc1 [Example 124A] | – | 130 | – | – | < 3 | < 30 |
| CCCc1nc(C(F)(F)C(F)(F)F)c(CO)n1Cc1ccc(-c2ccccc2C(=O)O)cc1 [Example 124B] | – | 50 | – | – | < 3 | < 30 |
| CCCc1nc(C(F)(F)F)c(CO)n1Cc1ccc(-c2ccccc2-c2nn[nH]n2)cc1 [Example 124D] | – | 6 | – | – | < 3 | < 30 |
| CCCCc1nc(C(F)(F)C(F)(F)F)c(CO)n1Cc1ccc(-c2ccccc2-c2nn[nH]n2)cc1 [Example 124E] | – | 7 | – | – | < 3 | < 30 |
| CCCc1nc(C(F)(F)C(F)(F)C(F)(F)F)c(CO)n1Cc1ccc(-c2ccccc2C(=O)O)cc1 [Example 124G] | – | 74 | – | – | < 3 | < 30 |
| CCCc1nc(C(F)(F)C(F)(F)C(F)(F)C(F)(F)F)c(CO)n1Cc1ccc(-c2ccccc2C(=O)O)cc1 [Example 124H] | – | 290 | – | – | < 3 | < 30 |
| CCCc1nc(C(F)(F)C(F)(F)C(F)(F)C(F)(F)C(F)(F)C(F)(F)F)c(CO)n1Cc1ccc(-c2ccccc2C(=O)O)cc1 [Example 124I] | – | 2500 | – | – | < 3 | > 30 |
| CCCc1nc(-c2c(F)c(F)c(F)c(F)c2F)c(CO)n1Cc1ccc(-c2ccccc2C(=O)O)cc1 [Example 124J] | – | 680 | – | – | < 3 | < 30 |
| CCCc1nc(C(F)(F)C(F)(F)C(F)(F)F)c(CO)n1Cc1ccc(-c2ccccc2-c2nnn[nH]2)cc1 [Example 124K] | – | 13 | – | – | < 3 | < 30 |
| O=C(O)c1ccccc1-c1ccc(Cn2c(CO)cnc2SCC2CC2)cc1 [Example 124] | 1800 | – | < 10 | > 100 | – | – |
| CCCCc1nc(Cl)c(C(=O)N(C)C)n1Cc1ccc(-c2ccccc2C(=O)O)cc1 [Example 135] | 1300 | – | < 10 | < 100 | – | – |
| CCCc1nc(C(F)(F)F)c(C=O)n1Cc1ccc(-c2ccccc2C(=O)O)cc1 [Example 140A] | – | 390 | – | – | – | < 30 |

Continued, in another order:

| IC50 (AII receptor; Table 25) [nM] | IC50 (AII receptor; Table 26) [nM] | Structure (SMILES) | minimal effective dose at 10 mg/kg (Renal Hypertensive Rats) [mg/kg] | minimal effective dose at 100 mg/kg (Renal Hypertensive Rats) [mg/kg] | minimal effective dose at 3 mg/kg (Renal Hypertensive Rats) [mg/kg] | minimal effective dose at 30 mg/kg (Renal Hypertensive Rats) [mg/kg] |
| --- | --- | --- | --- | --- | --- | --- |
| 1200 | – | CCCCc1nc(CO)c(Cl)n1Cc1ccc(-c2ccccc2C(=O)O)cc1 [Example 95] | < 10 | > 100 | – | – |
| 270 | – | CCCCc1ncc(CO)n1Cc1ccc(-c2ccccc2C(=O)O)cc1 [Example 97] | < 10 | > 100 | – | – |
| 90 | – | CCCCc1nc(Cl)c(COC(C)C)n1Cc1ccc(-c2ccccc2C(=O)O)cc1 [Example 99] | < 10 | < 100 | – | – |
| 90 | – | CCCCc1nc(Br)c(CO)n1Cc1ccc(-c2ccccc2C(=O)O)cc1 [Example 100] | < 10 | < 100 | – | – |
| 61 | – | CCCCc1nc(I)c(CO)n1Cc1ccc(-c2ccccc2C(=O)O)cc1 [Example 102] | < 10 | < 100 | – | – |
| 680 | – | CCCCc1nc(CO)c(I)n1Cc1ccc(-c2ccccc2C(=O)O)cc1 [Example 105] | < 10 | < 100 | – | – |
| 160 | – | CCCc1nc(Cl)c(CO)n1Cc1ccc(-c2ccccc2C(=O)O)cc1 [Example 108] | < 10 | < 100 | – | – |
| 980 | – | CCCCCc1nc(Cl)c(CO)n1Cc1ccc(-c2ccccc2C(=O)O)cc1 [Example 109] | < 10 | < 100 | – | – |
| 50 | – | CCCc1nc(Cl)c(C=O)n1Cc1ccc(-c2ccccc2-c2nnn[nH]2)cc1 [Example 114, 2-Propyl-4-chloro-1-[(2'-(1H-tetrazol-5-yl)biphenyl-4-yl)methyl]imidazole-5-carboxaldehyde] | < 10 | < 100 | – | – |
| 430 | – | CCCCc1nc(Cl)c(CC(=O)O)n1Cc1ccc(-c2ccccc2C(=O)O)cc1 [Example 115] | < 10 | < 100 | – | – |
| 260 | – | CCCCc1nc(Cl)c(C(C)C(=O)O)n1Cc1ccc(-c2ccccc2C(=O)O)cc1 (centres unmarked) [Example 116] | < 10 | < 100 | – | – |
| 890 | – | CCCCc1nc(CO)c([N+](=O)[O-])n1Cc1ccc(-c2ccccc2C(=O)O)cc1 [Example 117] | < 10 | < 100 | – | – |
| 89 | – | CCCCc1nc(CO)c(Cl)n1Cc1ccc(-c2ccccc2-c2nn[nH]n2)cc1 [Example 118] | < 10 | < 100 | – | – |
| 340 | – | CCCCc1nc(Cl)c(C(=O)OC)n1Cc1ccc(-c2ccccc2C(=O)O)cc1 [Example 126, methyl 1-[(2'-carboxybiphenyl-4-yl)methyl]-2-butyl-4-chloroimidazole-5-carboxylate] | < 10 | < 100 | – | – |
| 150 | – | CCCCc1nc(Cl)c(C(N)=O)n1Cc1ccc(-c2ccccc2C(=O)O)cc1 [Example 127, 1-[(2'-carboxybiphenyl-4-yl)methyl]-2-butyl-4-chloroimidazole-5-carboxamide] | < 10 | < 100 | – | – |
| 470 | – | CCCCc1ncc(C=O)n1Cc1ccc(-c2ccccc2C(=O)O)cc1 [Example 130] | < 10 | < 100 | – | – |
| 20 | – | CCCCc1nc(Cl)c(C=O)n1Cc1ccc(-c2ccccc2-c2nnn[nH]2)cc1 [Example 132, 2-n-Butyl-4-chloro-1-[(2'-(1H-Tetrazol-5-yl)-biphenyl-4-yl)methyl]imidazole-5-carboxaldehyde] | < 10 | < 100 | – | – |
| 36 | – | CCCCc1nc(C(F)(F)F)c(C=O)n1Cc1ccc(-c2ccccc2-c2nnn[nH]2)cc1 [Example 133] | < 10 | < 100 | – | – |
| 180 | – | CCCCc1nc(Cl)c(C(=O)NC)n1Cc1ccc(-c2ccccc2C(=O)O)cc1 [Example 134] | < 10 | < 100 | – | – |
| 53 | – | CCC=Cc1nc(C(F)(F)F)c(CO)n1Cc1ccc(-c2ccccc2C(=O)O)cc1 [Example 137] | < 10 | < 100 | – | – |
